Measurements published in PubChem BioAssay (NCI).
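These data come from cells grown in 96-well plates and exposed to compound for 48 hours at five concentrations. TGI is the concentration that stops growth completely.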

tested on: 786-0 renal; experiment: growth of human tumour cells (NCI), 48 h

SMILES | TGI [µM]
O=C1CCC(c2ccccc2)C(O)(C(=O)O)C1 (stereo not given) | > 100
CC(=O)O[C@@H]1C=C(C)[C@H](CBr)O[C@@]2(C)CC[C@H](Br)C(C)(C)[C@H]12 | > 100
COc1ccc2c(c1)OCc1c-2oc2ccccc2c1=O | > 100
CCCCn1c(C)c(C(=O)OCC)c2cc(OCc3ccc(C(=O)Nn4c(C)ccc4C)cc3)c(Br)cc21 | > 100
N#CCCN(CCC#N)c1ccc(C(=O)NN)cc1 | > 100
CC1=CC(=O)NP(=O)(Oc2ccc(C)cc2)N1 (stereo not given) | > 100
S=C(/N=c1/sc(Nc2ccccc2)nc2sc3c(c12)CCCC3)Nc1ccccc1 | > 62.5
CC(=O)OC1CC2OC(Cc3ccccc32)O1 (stereo not given) | > 100
C/C(=N\NC(=S)N1CC2CCC(CC2)C1)c1ccncn1 | 2.86
COC(=O)CCC(=O)NC1c2cccc3cccc(c23)Cn2c(=O)n(C)c(=O)n21 (stereo not given) | > 100
CCOC(=O)CC(NC(=O)c1nc[nH]c1[N+](=O)[O-])C(=O)OCC (stereo not given) | > 100
N#[O+].O=S(=O)([O-])[O-].[NH2-].[NH2-].[NH2-].[NH2-].[NH2-].[Ru+5] | > 100

tested on: SN12C renal; experiment: growth of human tumour cells (NCI), 48 h

SMILES | TGI [µM]
O=C1c2ccccc2S[C@@H](O)[C@@H]2CCCN12 | > 100
Cc1cc(=O)[nH]c(NNC(C#N)c2ccc(O)cc2)n1 (stereo not given) | > 100
O=C(CSc1nnc(Cc2ccccc2)o1)Nc1cccc([N+](=O)[O-])c1 | > 100
O=C(CC(=O)n1nc(-c2ccccc2)c(N=Nc2ccc(Cl)cc2)c1-c1ccccc1)Nc1cccc(Cl)c1 | > 100
O=c1[nH]nc(-c2cccc(Br)c2)[nH]1 | > 100
COc1cccc(C2c3cc4c(cc3OC(N3CCCC3)C2C)OCO4)c1 (stereo not given) | > 100
CN(C)/N=C(\CCN1CCCC1)CC(c1ccccc1)c1c(O)c2ccccc2oc1=O (stereo not given) | > 100
O=P(c1ccccc1)(c1ccccc1)C(NCc1ccccc1)c1ccc(F)cc1 (stereo not given) | 36.6
COc1cc2c(c(OC)c1OC)-c1ccc(SC)c(=O)cc1C(CC(=O)Oc1ccc([N+](=O)[O-])cc1)C2 (stereo not given) | > 43.1
CC(=O)NC(CCCN)C(=O)NCc1ccccc1 (stereo not given) | > 100
Cc1cc(O)c(/C=N/C(=S)NCCc2ccccc2)c(=O)o1 | > 100
Cc1nnc([C@@]2(C)CC[C@H]3[C@@H](CC=C4C[C@@H](O)CC[C@@]43C)[C@@H]2CC#N)o1 | > 100
Cc1ccccc1Nc1cn(COCc2ccccc2)c(=O)[nH]c1=O | > 100
COc1ccc(-c2c(C(C)=O)c(-c3ccccc3)n(C3OC(COC(C)=O)C(OC(C)=O)C(OC(C)=O)C3OC(C)=O)c(=S)c2C#N)cc1 (stereo not given) | > 100
CO/N=C(\C(=O)Nc1cncs1)c1csc(NC(c2ccccc2)(c2ccccc2)c2ccccc2)n1 | > 10
Cc1oc2nc(N(C)C)nc(Cl)c2c1C | > 100
Cn1c(=O)c2c(nc(NCCCCl)n2CC(=O)NCCCCl)n(C)c1=O | > 100
O=C1CCC(c2ccccc2)C(O)(C(=O)O)C1 (stereo not given) | > 100
CC(=O)O[C@@H]1C=C(C)[C@H](CBr)O[C@@]2(C)CC[C@H](Br)C(C)(C)[C@H]12 | > 100
COc1ccc2c(c1)OCc1c-2oc2ccccc2c1=O | > 100
CCCCn1c(C)c(C(=O)OCC)c2cc(OCc3ccc(C(=O)Nn4c(C)ccc4C)cc3)c(Br)cc21 | > 100
N#CCCN(CCC#N)c1ccc(C(=O)NN)cc1 | > 100
CC1=CC(=O)NP(=O)(Oc2ccc(C)cc2)N1 (stereo not given) | > 100
S=C(/N=c1/sc(Nc2ccccc2)nc2sc3c(c12)CCCC3)Nc1ccccc1 | > 62.5
CC(=O)OC1CC2OC(Cc3ccccc32)O1 (stereo not given) | > 100
C/C(=N\NC(=S)N1CC2CCC(CC2)C1)c1ccncn1 | 5.16
COC(=O)CCC(=O)NC1c2cccc3cccc(c23)Cn2c(=O)n(C)c(=O)n21 (stereo not given) | > 100
CCOC(=O)CC(NC(=O)c1nc[nH]c1[N+](=O)[O-])C(=O)OCC (stereo not given) | > 100
N#[O+].O=S(=O)([O-])[O-].[NH2-].[NH2-].[NH2-].[NH2-].[NH2-].[Ru+5] | > 100

tested on: HS 578T breast; experiment: growth of human tumour cells (NCI), 48 h

SMILES | TGI [µM]
O=C(CC(=O)n1nc(-c2ccccc2)c(N=Nc2ccc(Cl)cc2)c1-c1ccccc1)Nc1cccc(Cl)c1 | > 100
O=c1[nH]nc(-c2cccc(Br)c2)[nH]1 | 79.7
COc1cccc(C2c3cc4c(cc3OC(N3CCCC3)C2C)OCO4)c1 (stereo not given) | 34.6
O=P(c1ccccc1)(c1ccccc1)C(NCc1ccccc1)c1ccc(F)cc1 (stereo not given) | 98.2
Cc1nnc([C@@]2(C)CC[C@H]3[C@@H](CC=C4C[C@@H](O)CC[C@@]43C)[C@@H]2CC#N)o1 | > 100
Cc1ccccc1Nc1cn(COCc2ccccc2)c(=O)[nH]c1=O | > 100
CO/N=C(\C(=O)Nc1cncs1)c1csc(NC(c2ccccc2)(c2ccccc2)c2ccccc2)n1 | > 10
Cc1oc2nc(N(C)C)nc(Cl)c2c1C | > 100
Cn1c(=O)c2c(nc(NCCCCl)n2CC(=O)NCCCCl)n(C)c1=O | > 100
CCCCCCCCCCCCCCCCCc1cccc(OCOCCOC)c1CO | > 100
CC(=O)O[C@@H]1C=C(C)[C@H](CBr)O[C@@]2(C)CC[C@H](Br)C(C)(C)[C@H]12 | > 100
CCCCn1c(C)c(C(=O)OCC)c2cc(OCc3ccc(C(=O)Nn4c(C)ccc4C)cc3)c(Br)cc21 | > 100
S=C(/N=c1/sc(Nc2ccccc2)nc2sc3c(c12)CCCC3)Nc1ccccc1 | > 62.5
C/C(=N\NC(=S)N1CC2CCC(CC2)C1)c1ccncn1 | > 24.4
COC(=O)CCC(=O)NC1c2cccc3cccc(c23)Cn2c(=O)n(C)c(=O)n21 (stereo not given) | > 100

tested on: MDA-MB-435; experiment: growth of human tumour cells (NCI), 48 h

SMILES | TGI [µM]
O=c1[nH]nc(-c2cccc(Br)c2)[nH]1 | > 100
COc1cccc(C2c3cc4c(cc3OC(N3CCCC3)C2C)OCO4)c1 (stereo not given) | 11.6
O=P(c1ccccc1)(c1ccccc1)C(NCc1ccccc1)c1ccc(F)cc1 (stereo not given) | 23
Cc1cc(O)c(/C=N/C(=S)NCCc2ccccc2)c(=O)o1 | > 100
Cc1nnc([C@@]2(C)CC[C@H]3[C@@H](CC=C4C[C@@H](O)CC[C@@]43C)[C@@H]2CC#N)o1 | > 100
Cc1ccccc1Nc1cn(COCc2ccccc2)c(=O)[nH]c1=O | > 100
COc1ccc(-c2c(C(C)=O)c(-c3ccccc3)n(C3OC(COC(C)=O)C(OC(C)=O)C(OC(C)=O)C3OC(C)=O)c(=S)c2C#N)cc1 (stereo not given) | > 100
Cc1oc2nc(N(C)C)nc(Cl)c2c1C | > 100
Cn1c(=O)c2c(nc(NCCCCl)n2CC(=O)NCCCCl)n(C)c1=O | > 100
CCCCCCCCCCCCCCCCCc1cccc(OCOCCOC)c1CO | > 100
CC(=O)O[C@@H]1C=C(C)[C@H](CBr)O[C@@]2(C)CC[C@H](Br)C(C)(C)[C@H]12 | > 100
COc1ccc2c(c1)OCc1c-2oc2ccccc2c1=O | > 100
CCCCn1c(C)c(C(=O)OCC)c2cc(OCc3ccc(C(=O)Nn4c(C)ccc4C)cc3)c(Br)cc21 | > 100
S=C(/N=c1/sc(Nc2ccccc2)nc2sc3c(c12)CCCC3)Nc1ccccc1 | > 62.5
C/C(=N\NC(=S)N1CC2CCC(CC2)C1)c1ccncn1 | 5.9
COC(=O)CCC(=O)NC1c2cccc3cccc(c23)Cn2c(=O)n(C)c(=O)n21 (stereo not given) | > 100

tested on: NCI-H23 lung; experiment: growth of human tumour cells (NCI), 48 h

SMILES | TGI [µM]
O=C1c2ccccc2S[C@@H](O)[C@@H]2CCCN12 | > 100
Cc1cc(=O)[nH]c(NNC(C#N)c2ccc(O)cc2)n1 (stereo not given) | > 100
O=C(CSc1nnc(Cc2ccccc2)o1)Nc1cccc([N+](=O)[O-])c1 | > 100
O=C(CC(=O)n1nc(-c2ccccc2)c(N=Nc2ccc(Cl)cc2)c1-c1ccccc1)Nc1cccc(Cl)c1 | > 100
O=c1[nH]nc(-c2cccc(Br)c2)[nH]1 | > 100
COc1cccc(C2c3cc4c(cc3OC(N3CCCC3)C2C)OCO4)c1 (stereo not given) | > 100
CN(C)/N=C(\CCN1CCCC1)CC(c1ccccc1)c1c(O)c2ccccc2oc1=O (stereo not given) | > 100
O=P(c1ccccc1)(c1ccccc1)C(NCc1ccccc1)c1ccc(F)cc1 (stereo not given) | 31.3
COc1cc2c(c(OC)c1OC)-c1ccc(SC)c(=O)cc1C(CC(=O)Oc1ccc([N+](=O)[O-])cc1)C2 (stereo not given) | 1.88
CC(=O)NC(CCCN)C(=O)NCc1ccccc1 (stereo not given) | > 100
Cc1cc(O)c(/C=N/C(=S)NCCc2ccccc2)c(=O)o1 | > 100
Cc1nnc([C@@]2(C)CC[C@H]3[C@@H](CC=C4C[C@@H](O)CC[C@@]43C)[C@@H]2CC#N)o1 | > 100
Cc1ccccc1Nc1cn(COCc2ccccc2)c(=O)[nH]c1=O | > 100
COc1ccc(-c2c(C(C)=O)c(-c3ccccc3)n(C3OC(COC(C)=O)C(OC(C)=O)C(OC(C)=O)C3OC(C)=O)c(=S)c2C#N)cc1 (stereo not given) | > 100
CO/N=C(\C(=O)Nc1cncs1)c1csc(NC(c2ccccc2)(c2ccccc2)c2ccccc2)n1 | > 10
Cc1oc2nc(N(C)C)nc(Cl)c2c1C | > 100
Cn1c(=O)c2c(nc(NCCCCl)n2CC(=O)NCCCCl)n(C)c1=O | > 100
CCCCCCCCCCCCCCCCCc1cccc(OCOCCOC)c1CO | > 100
O=C1CCC(c2ccccc2)C(O)(C(=O)O)C1 (stereo not given) | > 100
CC(=O)O[C@@H]1C=C(C)[C@H](CBr)O[C@@]2(C)CC[C@H](Br)C(C)(C)[C@H]12 | > 100
CCCCn1c(C)c(C(=O)OCC)c2cc(OCc3ccc(C(=O)Nn4c(C)ccc4C)cc3)c(Br)cc21 | > 100
N#CCCN(CCC#N)c1ccc(C(=O)NN)cc1 | > 100
CC1=CC(=O)NP(=O)(Oc2ccc(C)cc2)N1 (stereo not given) | > 100
S=C(/N=c1/sc(Nc2ccccc2)nc2sc3c(c12)CCCC3)Nc1ccccc1 | > 62.5
CC(=O)OC1CC2OC(Cc3ccccc32)O1 (stereo not given) | > 100
C/C(=N\NC(=S)N1CC2CCC(CC2)C1)c1ccncn1 | 2.4
COC(=O)CCC(=O)NC1c2cccc3cccc(c23)Cn2c(=O)n(C)c(=O)n21 (stereo not given) | > 100
CCOC(=O)CC(NC(=O)c1nc[nH]c1[N+](=O)[O-])C(=O)OCC (stereo not given) | 49.8
N#[O+].O=S(=O)([O-])[O-].[NH2-].[NH2-].[NH2-].[NH2-].[NH2-].[Ru+5] | > 100

tested on: SK-MEL-5 melanoma; experiment: growth of human tumour cells (NCI), 48 h

SMILES | TGI [µM]
O=C1c2ccccc2S[C@@H](O)[C@@H]2CCCN12 | > 100
Cc1cc(=O)[nH]c(NNC(C#N)c2ccc(O)cc2)n1 (stereo not given) | > 100
O=C(CSc1nnc(Cc2ccccc2)o1)Nc1cccc([N+](=O)[O-])c1 | > 100
O=C(CC(=O)n1nc(-c2ccccc2)c(N=Nc2ccc(Cl)cc2)c1-c1ccccc1)Nc1cccc(Cl)c1 | > 100
O=c1[nH]nc(-c2cccc(Br)c2)[nH]1 | > 100
COc1cccc(C2c3cc4c(cc3OC(N3CCCC3)C2C)OCO4)c1 (stereo not given) | 18.5
O=P(c1ccccc1)(c1ccccc1)C(NCc1ccccc1)c1ccc(F)cc1 (stereo not given) | 29.6
COc1cc2c(c(OC)c1OC)-c1ccc(SC)c(=O)cc1C(CC(=O)Oc1ccc([N+](=O)[O-])cc1)C2 (stereo not given) | 13.9
CC(=O)NC(CCCN)C(=O)NCc1ccccc1 (stereo not given) | > 100
